Key:
[1] = tested on: peanut; assay: Upland soil application test (Test 2), crop injury; assay type: in vivo; conditions: 30 g ai/a, soil spray before emergence, 30 days later
Description: (§1) Resin-made 1/2500-are pots were filled with the soil of an upland field. After they were fertilized, soybean, peanut and cotton were seeded and 2-3 cm soil covering was applied. Seeds of redroot pigweed, common lambsquarters, barnyardgrass, green foxtail, large crabgrass, foxtail meadow and johnsongrass had been uniformly mixed with the soil. They were allowed to germinate in a green house. One day later (before emergence of weeds), a wettable powder prepared from a predetermined amount of each test compound in a similar manner to the method described in Formulation Example 1 was diluted with water and then sprayed evenly at an application rate equal to 10 l per are onto the surface of the soil by means of a pressure-operated ULV (ultra low volume) sprayer. Influence to the crops and weeds were observed 30 days later. The results are shown in Table 3, in which the degree of damages of each test plant and the degree of injury to each crop were determined by comparing the air-dried weights of the test plant and crop with those of the corresponding plant and crop in untreated pots and are shown in accordance with the following standard: […]

[2] = tested on: cotton; assay: Upland soil application test (Test 2), crop injury; assay type: in vivo; conditions: 30 g ai/a, soil spray before emergence, 30 days later
Description: as §1

[3] = tested on: soybean; assay: Upland soil application test (Test 2), crop injury; assay type: in vivo; conditions: 30 g ai/a, soil spray before emergence, 30 days later
Description: as §1

[4] = tested on: barnyardgrass; assay: Upland soil application test (Test 2); assay type: in vivo; conditions: 30 g ai/a, soil spray before emergence, 30 days later
Description: as §1

[5] = tested on: foxtail meadow; assay: Upland soil application test (Test 2); assay type: in vivo; conditions: 30 g ai/a, soil spray before emergence, 30 days later
Description: as §1

[6] = tested on: redroot pigweed; assay: Upland soil application test (Test 2); assay type: in vivo; conditions: 30 g ai/a, soil spray before emergence, 30 days later
Description: as §1

[7] = tested on: common lambsquarters; assay: Upland soil application test (Test 2); assay type: in vivo; conditions: 30 g ai/a, soil spray before emergence, 30 days later
Description: as §1

[8] = tested on: johnsongrass; assay: Upland soil application test (Test 2); assay type: in vivo; conditions: 30 g ai/a, soil spray before emergence, 30 days later
Description: as §1

[9] = tested on: green foxtail; assay: Upland soil application test (Test 2); assay type: in vivo; conditions: 30 g ai/a, soil spray before emergence, 30 days later
Description: as §1

[10] = tested on: large crabgrass; assay: Upland soil application test (Test 2); assay type: in vivo; conditions: 30 g ai/a, soil spray before emergence, 30 days later
Description: as §1

[11] = tested on: cotton; assay: Upland foliar application test (Test 3), crop injury; assay type: in vivo; conditions: 30 g ai/a, foliar spray at 2-3 leaves, 30th day
Procedure, shortened: (§2)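 Steps: sow in upland soil, greenhouse; grow to 2-3 leaf stage; spray leaves with water-diluted emulsion at 5 l per are using a ULV sprayer; assess effects on day 30.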

[12] = tested on: soybean; assay: as above; assay type: in vivo; conditions: 30 g ai/a, foliar spray at 2-3 leaves, 30th day
Procedure, shortened: as §2

[13] = tested on: ALS (acetolactate syntase); assay: ALS enzyme assay (Test 1); assay type: biochemical, pea; conditions: 1,000 ppm (0.5 mg/0.5 ml)
Description: To determine the selectivity in enzyme level between crops and weeds, and ALS enzyme assay was conducted using pea as a representative of broadleaf crops and barnyardgrass as a representative of narrowleaf weeds.
After seeds of pea and barnyardgrass were allowed to germinate at 25° C. for 8-14 days in a dark place, partially-purified suspensions (Suspensions A) of acetolactate syntase were separately obtained from seedlings in accordance with the method described in the literature, Plant Physiology, 75, 827-831.
In a test tube, 0.5 mg of one of test compounds was weighed, followed by the addition of 0.15 ml of a 20 mM K2 HPO4 solution and 0.25 ml of a reaction substrate medium which consisted of 40 mM of K2 HPO4, 40 mM of sodium pyruvate, 1 mM of TPP, 1 mM of MgCl2 and 20 μM of FAD so that 0.4 ml of a reaction solution (Solution B) was prepared. Added to 0.4 ml of Solution B was 0.1 ml of suspension A. After the resultant mixture was shaken for 1 hour in a thermostat water bath controlled at 30° C., 50 μl of 6N sulfuric acid were added to terminate the reaction.
Next, the reaction-terminated liquid mixture was transferred into a thermostat water bath controlled at 60° C. and was heated for 15 minutes. Thereafter, 0.5 ml of a 0.5% creatine solution and 0.5 ml of a 5% alkaline α-naphthol solution were added, and the resultant mixture was maintained at 60° C. for 15 minutes. As a result, the test solution developed a pink-red color. After the above operation, the absorbance of the test solution at 525 nm was measured by a spectrophotometer (Absorbance 1 of Test Compound).
On the other hand, the absorbance (Absorbance 2 of Blank) of a solution obtained by subjecting a portion of Solution B, said portion being free of the test compound, to the above operation and the absorbance (Absorbance 3 of sulfuric acid terminated) of another solution obtained by subjecting another portion of Solution B, said portion containing 50 μl of 6N sulfuric acid as a test compound, were measured at the same time. Based on the values of the respective measurements, the enzyme assay at 1,000 ppm (0.5 mg/0.5 ml) of each compound was determined. [formula]

| SMILES | Injury Peanut [1] | Injury Cotton [2] | Injury Soybean [3] | Herbicidal effects Barnyardgrass [4] | Herbicidal effects Foxtail meadow [5] | Herbicidal effects Redroot pigweed [6] | Herbicidal effects Common lambsquarters [7] | Herbicidal effects Johnsongrass [8] | Herbicidal effects Green foxtail [9] | Herbicidal effects Large crabgrass [10] | Injury Cotton [11] | Injury Soybean [12] | Inhibitory activity (%) Pea [13] |
| --- | --- | --- | --- | --- | --- | --- | --- | --- | --- | --- | --- | --- | --- |
| COC(=O)c1ccccc1Oc1nc(OC)cc(OC)n1 [A, reference compound] | 5 (0-5 (Death)) | 5 (0-5 (Death)) | 5 (0-5 (Death)) | 5 (0-5 (Death)) | 5 (0-5 (Death)) | 5 (0-5 (Death)) | 4 (6-10 (Severe damages)) | 5 (0-5 (Death)) | 5 (0-5 (Death)) | 5 (0-5 (Death)) | 5 (0-5 (Death)) | 5 (0-5 (Death)) | 72% |
| COc1cc(OC)nc(Oc2ccccc2C=O)n1 [B, reference compound] | 5 (0-5 (Death)) | 5 (0-5 (Death)) | 5 (0-5 (Death)) | 4 (6-10 (Severe damages)) | 4 (6-10 (Severe damages)) | 3 (11-40 (Medium damages)) | 3 (11-40 (Medium damages)) | 4 (6-10 (Severe damages)) | 4 (6-10 (Severe damages)) | 4 (6-10 (Severe damages)) | 5 (0-5 (Death)) | 5 (0-5 (Death)) | 92% |
| CON=Cc1ccccc1Oc1nc(OC)cc(OC)n1 [Compound No. 1, O-methyl--2-(4,6-dimethoxy-2-pyrimidinyloxy)benzaldoxime] | 0 (91-100 (No damages)) | 0 (91-100 (No damages)) | 0 (91-100 (No damages)) | 5 (0-5 (Death)) | 5 (0-5 (Death)) | 5 (0-5 (Death)) | 4 (6-10 (Severe damages)) | 5 (0-5 (Death)) | 5 (0-5 (Death)) | 4 (6-10 (Severe damages)) | 0 (91-100 (No damages)) | 0 (91-100 (No damages)) | 3% |
| C=CC(C)ON=Cc1ccccc1Oc1nc(OC)cc(OC)n1 (stereo not shown) [Compound No. 2] | 0 (91-100 (No damages)) | 0 (91-100 (No damages)) | 0 (91-100 (No damages)) | 5 (0-5 (Death)) | 5 (0-5 (Death)) | 4 (6-10 (Severe damages)) | 4 (6-10 (Severe damages)) | 5 (0-5 (Death)) | 5 (0-5 (Death)) | 5 (0-5 (Death)) | 0 (91-100 (No damages)) | 0 (91-100 (No damages)) | 0% |
| C=CCON=Cc1ccccc1Oc1nc(OC)cc(OC)n1 [Compound No. 4] | 0 (91-100 (No damages)) | 0 (91-100 (No damages)) | 0 (91-100 (No damages)) | 5 (0-5 (Death)) | 5 (0-5 (Death)) | 4 (6-10 (Severe damages)) | 3 (11-40 (Medium damages)) | 5 (0-5 (Death)) | 5 (0-5 (Death)) | 4 (6-10 (Severe damages)) | 0 (91-100 (No damages)) | 0 (91-100 (No damages)) | 0% |
| COc1cc(OC)nc(Oc2ccccc2C=NOCc2ccc(Cl)cc2Cl)n1 [Compound No. 17] | 0 (91-100 (No damages)) | 0 (91-100 (No damages)) | 0 (91-100 (No damages)) | 3 (11-40 (Medium damages)) | 3 (11-40 (Medium damages)) | 3 (11-40 (Medium damages)) | 4 (6-10 (Severe damages)) | 3 (11-40 (Medium damages)) | 3 (11-40 (Medium damages)) | 3 (11-40 (Medium damages)) | 0 (91-100 (No damages)) | 0 (91-100 (No damages)) | 0% |
| COc1cc(OC)nc(Oc2ccccc2C=NOCC=Cc2cccc(Cl)c2)n1 [Compound No. 26, 0-(3-chlorocinnamyl)-2-(4,6-dimethoxy-2-pyrimidinyloxy)benzaldxime] | 0 (91-100 (No damages)) | 0 (91-100 (No damages)) | 0 (91-100 (No damages)) | 5 (0-5 (Death)) | 4 (6-10 (Severe damages)) | 5 (0-5 (Death)) | 4 (6-10 (Severe damages)) | 5 (0-5 (Death)) | 5 (0-5 (Death)) | 5 (0-5 (Death)) | 0 (91-100 (No damages)) | 0 (91-100 (No damages)) | 8% |
| COc1cc(OC)nc(Oc2ccccc2C=NOCc2ccc(Cl)c(Cl)c2)n1 [compound 18] | – | 0 (91-100 (No damages)) | 0 (91-100 (No damages)) | 4 (6-10 (Severe damages)) | 3 (11-40 (Medium damages)) | 3 (11-40 (Medium damages)) | 4 (6-10 (Severe damages)) | 3 (11-40 (Medium damages)) | 4 (6-10 (Severe damages)) | 3 (11-40 (Medium damages)) | 0 (91-100 (No damages)) | 0 (91-100 (No damages)) | 0% |
